Measurements from ChEMBL document CHEMBL1671626, “In vitro profiling of ceftaroline against a collection of recent bacterial clinical isolates from across the United States” (2008).
Values after ≈ are worked out from the molar mass of the structure shown.

Columns and labels:
Format in all cases: functional
[1] = test system: Enterobacteriaceae; experiment: Antibacterial activity against ceftazidime-susceptible Enterobacteriaceae by CLSI M7-A7 broth microdilution method
[2] = test system: Enterobacteriaceae; experiment: Antibacterial activity against ceftazidime-susceptible Enterobacteriaceae assessed as susceptible isolates by CLSI M7-A7 broth microdilution method
[3] = test system: Enterobacteriaceae; experiment: Antibacterial activity against ceftazidime-susceptible Enterobacteriaceae assessed as resistant isolates by CLSI M7-A7 broth microdilution method
[4] = test system: Enterobacteriaceae; experiment: Antibacterial activity against ceftazidime-nonsusceptible Enterobacteriaceae by CLSI M7-A7 broth microdilution method
[5] = test system: Enterobacteriaceae; experiment: Antibacterial activity against ceftazidime-nonsusceptible Enterobacteriaceae assessed as susceptible isolates by CLSI M7-A7 broth microdilution method
[6] = test system: Enterobacteriaceae; experiment: Antibacterial activity against ceftazidime-nonsusceptible Enterobacteriaceae assessed as resistant isolates by CLSI M7-A7 broth microdilution method
[7] = test system: Citrobacter freundii; experiment: Antibacterial activity against ceftazidime-susceptible Citrobacter freundii by CLSI M7-A7 broth microdilution method
[8] = test system: Citrobacter freundii; experiment: Antibacterial activity against ceftazidime-susceptible Citrobacter freundii assessed as susceptible isolates by CLSI M7-A7 broth microdilution method
[9] = test system: Citrobacter freundii; experiment: Antibacterial activity against ceftazidime-susceptible Citrobacter freundii assessed as resistant isolates by CLSI M7-A7 broth microdilution method
[10] = test system: Citrobacter freundii; experiment: Antibacterial activity against ceftazidime-nonsusceptible Citrobacter freundii by CLSI M7-A7 broth microdilution method
[11] = test system: Citrobacter freundii; experiment: Antibacterial activity against ceftazidime-nonsusceptible Citrobacter freundii assessed as susceptible isolates by CLSI M7-A7 broth microdilution method
[12] = test system: Citrobacter freundii; experiment: Antibacterial activity against ceftazidime-nonsusceptible Citrobacter freundii assessed as resistant isolates by CLSI M7-A7 broth microdilution method
[13] = test system: Enterobacter cloacae; experiment: Antibacterial activity against ceftazidime-susceptible Enterobacter cloacae by CLSI M7-A7 broth microdilution method
[14] = test system: Enterobacter cloacae; experiment: Antibacterial activity against ceftazidime-susceptible Enterobacter cloacae assessed as susceptible isolates by CLSI M7-A7 broth microdilution method
[15] = test system: Enterobacter cloacae; experiment: Antibacterial activity against ceftazidime-susceptible Enterobacter cloacae assessed as resistant isolates by CLSI M7-A7 broth microdilution method
[16] = test system: Enterobacter cloacae; experiment: Antibacterial activity against ceftazidime-nonsusceptible Enterobacter cloacae by CLSI M7-A7 broth microdilution method
[17] = test system: Enterobacter cloacae; experiment: Antibacterial activity against ceftazidime-nonsusceptible Enterobacter cloacae assessed as susceptible isolates by CLSI M7-A7 broth microdilution method
[18] = test system: Enterobacter cloacae; experiment: Antibacterial activity against ceftazidime-nonsusceptible Enterobacter cloacae assessed as resistant isolates by CLSI M7-A7 broth microdilution method
[19] = test system: Escherichia coli; experiment: Antibacterial activity against ceftazidime-susceptible Escherichia coli by CLSI M7-A7 broth microdilution method
[20] = test system: Escherichia coli; experiment: Antibacterial activity against ceftazidime-susceptible Escherichia coli assessed as susceptible isolates by CLSI M7-A7 broth microdilution method
[21] = test system: Escherichia coli; experiment: Antibacterial activity against ceftazidime-susceptible Escherichia coli assessed as resistant isolates by CLSI M7-A7 broth microdilution method
[22] = test system: Escherichia coli; experiment: Antibacterial activity against ceftazidime-nonsusceptible Escherichia coli by CLSI M7-A7 broth microdilution method
[23] = test system: Escherichia coli; experiment: Antibacterial activity against ceftazidime-nonsusceptible Escherichia coli assessed as susceptible isolates by CLSI M7-A7 broth microdilution method
[24] = test system: Escherichia coli; experiment: Antibacterial activity against ceftazidime-nonsusceptible Escherichia coli assessed as resistant isolates by CLSI M7-A7 broth microdilution method
[25] = test system: Klebsiella pneumoniae; experiment: Antibacterial activity against ceftazidime-susceptible Klebsiella pneumoniae by CLSI M7-A7 broth microdilution method
[26] = test system: Klebsiella pneumoniae; experiment: Antibacterial activity against ceftazidime-susceptible Klebsiella pneumoniae assessed as susceptible isolates by CLSI M7-A7 broth microdilution method
[27] = test system: Klebsiella pneumoniae; experiment: Antibacterial activity against ceftazidime-susceptible Klebsiella pneumoniae assessed as resistant isolates by CLSI M7-A7 broth microdilution method
[28] = test system: Klebsiella pneumoniae; experiment: Antibacterial activity against ceftazidime-nonsusceptible Klebsiella pneumoniae by CLSI M7-A7 broth microdilution method
[29] = test system: Klebsiella pneumoniae; experiment: Antibacterial activity against ceftazidime-nonsusceptible Klebsiella pneumoniae assessed as susceptible isolates by CLSI M7-A7 broth microdilution method
[30] = test system: Klebsiella pneumoniae; experiment: Antibacterial activity against ceftazidime-nonsusceptible Klebsiella pneumoniae assessed as resistant isolates by CLSI M7-A7 broth microdilution method
[31] = test system: Morganella morganii; experiment: Antibacterial activity against ceftazidime-susceptible Morganella morganii by CLSI M7-A7 broth microdilution method
[32] = test system: Morganella morganii; experiment: Antibacterial activity against ceftazidime-susceptible Morganella morganii assessed as susceptible isolates by CLSI M7-A7 broth microdilution method
[33] = test system: Morganella morganii; experiment: Antibacterial activity against ceftazidime-susceptible Morganella morganii assessed as resistant isolates by CLSI M7-A7 broth microdilution method
[34] = test system: Proteus mirabilis; experiment: Antibacterial activity against ceftazidime-susceptible Proteus mirabilis by CLSI M7-A7 broth microdilution method
[35] = test system: Proteus mirabilis; experiment: Antibacterial activity against ceftazidime-susceptible Proteus mirabilis assessed as susceptible isolates by CLSI M7-A7 broth microdilution method
[36] = test system: Proteus mirabilis; experiment: Antibacterial activity against ceftazidime-susceptible Proteus mirabilis assessed as resistant isolates by CLSI M7-A7 broth microdilution method
[37] = test system: Serratia marcescens; experiment: Antibacterial activity against ceftazidime-susceptible Serratia marcescens by CLSI M7-A7 broth microdilution method
[38] = test system: Serratia marcescens; experiment: Antibacterial activity against ceftazidime-susceptible Serratia marcescens assessed as susceptible isolates by CLSI M7-A7 broth microdilution method
[39] = test system: Serratia marcescens; experiment: Antibacterial activity against ceftazidime-susceptible Serratia marcescens assessed as resistant isolates by CLSI M7-A7 broth microdilution method
[40] = test system: Acinetobacter; experiment: Antibacterial activity against multidrug-resistant Acinetobacter by CLSI M7-A7 broth microdilution method
[41] = test system: Acinetobacter; experiment: Antibacterial activity against imipenem-susceptible Acinetobacter by CLSI M7-A7 broth microdilution method
[42] = test system: Haemophilus influenzae; experiment: Antibacterial activity against beta lactamase-negative Haemophilus influenzae by CLSI M7-A7 broth microdilution method
[43] = test system: Haemophilus influenzae; experiment: Antibacterial activity against beta lactamase-negative Haemophilus influenzae assessed as susceptible isolates by CLSI M7-A7 broth microdilution method
[44] = test system: Haemophilus influenzae; experiment: Antibacterial activity against beta lactamase-negative Haemophilus influenzae assessed as resistant isolates by CLSI M7-A7 broth microdilution method
[45] = test system: Haemophilus influenzae; experiment: Antibacterial activity against beta lactamase-positive Haemophilus influenzae by CLSI M7-A7 broth microdilution method
[46] = test system: Haemophilus influenzae; experiment: Antibacterial activity against beta lactamase-positive Haemophilus influenzae assessed as susceptible isolates by CLSI M7-A7 broth microdilution method
[47] = test system: Haemophilus influenzae; experiment: Antibacterial activity against beta lactamase-positive Haemophilus influenzae assessed as resistant isolates by CLSI M7-A7 broth microdilution method
[48] = test system: Providencia sp.; experiment: Antibacterial activity against ceftazidime-susceptible Providencia sp. by CLSI M7-A7 broth microdilution method
[49] = test system: Providencia sp.; experiment: Antibacterial activity against ceftazidime-susceptible Providencia sp. assessed as susceptible isolates by CLSI M7-A7 broth microdilution method
[50] = test system: Providencia sp.; experiment: Antibacterial activity against ceftazidime-susceptible Providencia sp. assessed as resistant isolates by CLSI M7-A7 broth microdilution method

CC1(C)S[C@@H]2[C@H](NC(=O)[C@H](N)c3ccccc3)C(=O)N2[C@H]1C(=O)O [AMPICILLIN]
MIC50 [1]: 32 µg/mL (≈ 91.6 µM) | MIC90 [1]: > 32 µg/mL | Activity [2]: 35.2% | Activity [3]: 57% | MIC [4]: > 32 µg/mL | MIC50 [4]: > 32 µg/mL | MIC90 [4]: > 32 µg/mL | Activity [5]: 0% | Activity [6]: 100% | MIC50 [7]: 16 µg/mL (≈ 45.8 µM) | MIC90 [7]: > 32 µg/mL | Activity [8]: 36% | Activity [9]: 42% | MIC [10]: > 32 µg/mL | MIC50 [10]: > 32 µg/mL | MIC90 [10]: > 32 µg/mL | Activity [11]: 0% | Activity [12]: 100% | MIC50 [13]: 32 µg/mL (≈ 91.6 µM) | MIC90 [13]: > 32 µg/mL | Activity [14]: 20% | Activity [15]: 66% | MIC [16]: > 32 µg/mL | MIC50 [16]: > 32 µg/mL | MIC90 [16]: > 16 µg/mL | Activity [17]: 0% | Activity [18]: 100% | MIC50 [19]: 4 µg/mL (≈ 11.4 µM) | MIC90 [19]: > 32 µg/mL | Activity [20]: 58.3% | Activity [21]: 40.9% | MIC [22]: > 32 µg/mL | MIC50 [22]: > 32 µg/mL | MIC90 [22]: > 32 µg/mL | Activity [23]: 0% | Activity [24]: 100% | MIC50 [25]: > 32 µg/mL | MIC90 [25]: > 32 µg/mL | Activity [26]: 5.2% | Activity [27]: 80% | MIC [28]: > 32 µg/mL | MIC50 [28]: > 32 µg/mL | MIC90 [28]: > 32 µg/mL | Activity [29]: 0% | Activity [30]: 100% | MIC50 [31]: > 32 µg/mL | MIC90 [31]: > 32 µg/mL | Activity [32]: 8.8% | Activity [33]: 85.3% | MIC50 [34]: 1 µg/mL (≈ 2.86 µM) | MIC90 [34]: > 32 µg/mL | Activity [35]: 72.4% | Activity [36]: 27.6% | MIC50 [37]: > 32 µg/mL | MIC90 [37]: > 32 µg/mL | Activity [38]: 3.4% | Activity [39]: 83.1% | MIC [40]: > 32 µg/mL | MIC50 [40]: > 32 µg/mL | MIC50 [41]: 16 µg/mL (≈ 45.8 µM) | MIC90 [41]: > 32 µg/mL | MIC [42]: ≤ 0.25 µg/mL | MIC50 [42]: ≤ 0.25 µg/mL | MIC90 [42]: 0.5 µg/mL (≈ 1.43 µM) | Activity [43]: 99% | Activity [44]: 1% | MIC50 [45]: 32 µg/mL (≈ 91.6 µM) | MIC90 [45]: > 32 µg/mL | Activity [46]: 2% | Activity [47]: 97% | MIC50 [48]: 32 µg/mL (≈ 91.6 µM) | MIC90 [48]: > 32 µg/mL | Activity [49]: 22.2% | Activity [50]: 66.7%
